Among the test systems are TK-10 renal; M14 melanoma; HCT-116 colon; LOX IMVI melanoma; SF-295 CNS; SR leukemia; SNB-19 CNS; OVCAR-8 ovarian; HT29 colon; OVCAR-5 ovarian.
What all share (assay): NCI-60 cell line screen, 48 h

“And” between values parts separate entries of the source, which are not always exact repeats. Equal entries are not always repeated.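 Briefly, cells in 96-well plates were exposed to five compound concentrations for 48 h, and endpoints were estimated by linear interpolation. At the GI50, growth is halved. The concentration for full growth arrest is given as TGI.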

On to `CC(C(=O)n1nnc2ccccc21)N(c1ccccc1)c1ccccc1` (configuration not stated), for which the TGI with TK-10 renal, in the experiment on M14 melanoma, with HCT-116 colon, in the experiment on LOX IMVI melanoma, in the experiment on SF-295 CNS and in the experiment with SR leukemia was more than 100 µM each time. Besides, the TGI with SNB-19 CNS, in the experiment on OVCAR-8 ovarian, in the experiment with HT29 colon and with OVCAR-5 ovarian was more than 100 µM each time.
On to `O=c1c(Cl)c(Cl)cnn1CCc1ccncc1`, for which the TGI with TK-10 renal was more than 100 µM; with M14 melanoma, 30.7 µM; with HCT-116 colon, 30.7 µM; with LOX IMVI melanoma, 33.7 µM; with SF-295 CNS it was 83 µM; with SR leukemia it was 57.2 µM. In addition, the TGI with SNB-19 CNS turned out to be 30.7 µM; with OVCAR-8 ovarian it was 43.1 µM; with HT29 colon, 31.6 µM; with OVCAR-5 ovarian, 33.6 µM.
Turning to `OC(CN1CC1)C(O)CN1CC1` (configuration not stated), the GI50 in the experiment with TK-10 renal, in the experiment with M14 melanoma, with HCT-116 colon, in the experiment with LOX IMVI melanoma, with SF-295 CNS and with SR leukemia was more than 50 µg/mL throughout. For the same compound, the GI50 in the experiment on SNB-19 CNS, with OVCAR-8 ovarian, with HT29 colon and in the experiment with OVCAR-5 ovarian was more than 50 µg/mL in each case. Also, the TGI in the experiment on TK-10 renal, in the experiment on M14 melanoma, in the experiment with HCT-116 colon, with LOX IMVI melanoma, with SF-295 CNS and in the experiment with SR leukemia was more than 50 µg/mL in each case. For the same compound, the TGI with SNB-19 CNS, in the experiment on OVCAR-8 ovarian, in the experiment on HT29 colon and with OVCAR-5 ovarian was more than 50 µg/mL in each case.
Regarding `OB1OCc2cc(/C=C/c3cccc(C(F)(F)F)c3)ccc21`, the GI50 with TK-10 renal was 2.46 µM; in the experiment with M14 melanoma, 0.653 µM; with HCT-116 colon, 0.89 µM; in the experiment with LOX IMVI melanoma, 0.302 µM; in the experiment with SF-295 CNS, 0.432 µM; in the experiment with SR leukemia, 0.318 µM. Also, the GI50 with SNB-19 CNS was 0.765 µM; in the experiment on OVCAR-8 ovarian, 0.918 µM; in the experiment on HT29 colon, 1.44 µM; in the experiment on OVCAR-5 ovarian, 5.15 µM. Further, the TGI in the experiment on TK-10 renal amounted to 34.1 µM; in the experiment with M14 melanoma it was 35.3 µM; with HCT-116 colon it was 11.8 µM; in the experiment with LOX IMVI melanoma, 1.25 µM; in the experiment on SF-295 CNS it was 16.1 µM; in the experiment on SR leukemia it was 11.6 µM. The TGI in the experiment with SNB-19 CNS is 48.7 µM; with OVCAR-8 ovarian it was 24.2 µM; in the experiment on HT29 colon, more than 100 µM; with OVCAR-5 ovarian, more than 100 µM.
Turning to `O=C1C(Cl)=C(Nc2ccccc2)C(=O)c2ccccc21`, the GI50 was 11 µM in the experiment with TK-10 renal; 1.88 µM in the experiment on M14 melanoma; 1.83 µM with HCT-116 colon; 0.856 µM with LOX IMVI melanoma; 10.6 µM in the experiment with SF-295 CNS; 0.992 µM in the experiment with SR leukemia. Also, the GI50 was 2.22 µM in the experiment with SNB-19 CNS, 1.71 µM in the experiment with OVCAR-8 ovarian, 2.27 µM with HT29 colon and 1.94 µM with OVCAR-5 ovarian. Further, the TGI was more than 100 µM in the experiment on TK-10 renal; 3.57 µM in the experiment with M14 melanoma; 3.53 µM in the experiment with HCT-116 colon; 2.86 µM in the experiment with LOX IMVI melanoma; 24.1 µM with SF-295 CNS; more than 100 µM with SR leukemia. Moreover, the TGI was determined as 5.07 µM in the experiment on SNB-19 CNS, 3.2 µM in the experiment on OVCAR-8 ovarian, 4.72 µM in the experiment with HT29 colon and 3.65 µM in the experiment on OVCAR-5 ovarian.
As to `CN(C)Cc1c[nH]c2c(NCCN)c3c(c(NCCN)c12)C(=O)c1ccccc1C3=O`, the GI50 in the experiment with TK-10 renal is 3.25 µM; in the experiment with M14 melanoma, 3.51 µM; with HCT-116 colon, 0.625 µM; in the experiment with LOX IMVI melanoma, 0.556 µM; in the experiment on SF-295 CNS, 2.49 µM; in the experiment on SNB-19 CNS, 6.52 µM. In addition, the GI50 was 0.726 µM in the experiment on OVCAR-8 ovarian, 3.65 µM in the experiment with HT29 colon and 5.68 µM with OVCAR-5 ovarian. For the same compound, the TGI was 9.49 µM in the experiment with TK-10 renal; 16.9 µM in the experiment with M14 melanoma; 5.29 µM in the experiment with HCT-116 colon; 1.88 µM in the experiment on LOX IMVI melanoma; 8.45 µM in the experiment on SF-295 CNS; more than 100 µM in the experiment with SR leukemia. Also, the TGI with SNB-19 CNS came out at 23 µM; in the experiment on OVCAR-8 ovarian, 11 µM; in the experiment on HT29 colon it was 26.5 µM; in the experiment with OVCAR-5 ovarian it was 25.1 µM.
With `NC(=O)c1cccc(Nc2nccc(Nc3cccc(F)c3)n2)c1`, the GI50 in the experiment with TK-10 renal is 6.51 µM; in the experiment with M14 melanoma it was 8.92 µM; in the experiment on HCT-116 colon it was 9.1 µM; in the experiment on LOX IMVI melanoma it was 7.66 µM; in the experiment with SF-295 CNS, 9.82 µM; in the experiment on SR leukemia, 7.1 µM. Besides, the GI50 in the experiment on SNB-19 CNS was 18.6 µM; with OVCAR-8 ovarian it was 9.49 µM; in the experiment with HT29 colon, 6.98 µM; in the experiment with OVCAR-5 ovarian it was 8.07 µM. Further, the TGI with TK-10 renal is more than 23.7 µM; with M14 melanoma it was more than 25 µM; with HCT-116 colon, more than 25 µM; in the experiment on LOX IMVI melanoma, more than 25 µM; in the experiment with SF-295 CNS it was more than 25 µM; in the experiment on SR leukemia it was more than 25 µM. Also, the TGI in the experiment with SNB-19 CNS, with OVCAR-8 ovarian, in the experiment with HT29 colon and with OVCAR-5 ovarian was more than 25 µM throughout.
With `C=C1CC2(OC1=O)C(=O)N(CCCN1C(=O)C3(CC(=C)C(=O)O3)c3ccccc31)c1ccccc12` (configuration not stated), the GI50 in the experiment with TK-10 renal was 1.54 µM; in the experiment with M14 melanoma it was 1.68 µM; in the experiment on HCT-116 colon, 1.84 µM; in the experiment on LOX IMVI melanoma, 0.805 µM; with SF-295 CNS it was 13.2 µM; with SR leukemia it was 0.33 µM. The GI50 in the experiment on SNB-19 CNS was 13.3 µM; in the experiment on OVCAR-8 ovarian it was 1.35 µM; with HT29 colon, 1.85 µM; in the experiment on OVCAR-5 ovarian, 2.07 µM. In addition, the TGI with TK-10 renal was 2.98 µM; with M14 melanoma it was 3.67 µM; in the experiment on HCT-116 colon, 3.75 µM; in the experiment on LOX IMVI melanoma, 2.1 µM; with SF-295 CNS, 26 µM; with SR leukemia it was 1.35 µM. The TGI with SNB-19 CNS worked out at 26.2 µM; with OVCAR-8 ovarian it was 5.49 µM; with HT29 colon, 4.91 µM; with OVCAR-5 ovarian, 4.55 µM.
For `C#CCC(N)(CO)C(=O)O` (configuration not stated), the TGI in the experiment on TK-10 renal, in the experiment on M14 melanoma, with HCT-116 colon, with LOX IMVI melanoma, in the experiment with SF-295 CNS and in the experiment with SR leukemia was more than 100 µM in each case. Further, the TGI in the experiment on SNB-19 CNS, in the experiment on OVCAR-8 ovarian, with HT29 colon and in the experiment on OVCAR-5 ovarian was more than 100 µM throughout.
Consider `CCN(CC)CCNC(=O)c1c(C)[nH]c(/C=C2\C(=O)Nc3ccc(F)cc32)c1C`, for which the GI50 with TK-10 renal is 2.78 µM and 2.01 µM and 5.52 µM; in the experiment on M14 melanoma it was 0.574 µM and 1.03 µM and 0.687 µM; with HCT-116 colon, 1.32 µM and 1.38 µM and 1.16 µM; in the experiment on LOX IMVI melanoma, 1.29 µM and 2.29 µM and 1.32 µM; in the experiment with SF-295 CNS, > 10 µM and 4.09 µM and 10.2 µM; with SR leukemia it was 1.97 µM and 4.56 µM and 1.27 µM. In addition, the GI50 was > 10 µM and 5.36 µM and 11.4 µM in the experiment with SNB-19 CNS; 9.05 µM and 2.81 µM and 6.09 µM in the experiment on OVCAR-8 ovarian; 1.07 µM and 1.3 µM and 1.54 µM in the experiment on HT29 colon; 4.1 µM and 2.35 µM and 3.57 µM in the experiment with OVCAR-5 ovarian. For the same compound, the TGI in the experiment with TK-10 renal is > 10 µM and 5.81 µM and 20.9 µM; with M14 melanoma, 2.33 µM and 3.56 µM and 2.23 µM; in the experiment on HCT-116 colon, 5.25 µM and 3.85 µM and 3.09 µM; in the experiment with LOX IMVI melanoma, 2.92 µM and 5.01 µM and 3 µM; with SF-295 CNS it was > 10 µM and 8.23 µM and 24.1 µM; in the experiment with SR leukemia, 5.11 µM and 14.2 µM and 3.74 µM. Moreover, the TGI is > 10 µM and 16.3 µM and 25.6 µM with SNB-19 CNS; > 10 µM and 6.95 µM and 23.1 µM in the experiment with OVCAR-8 ovarian; 5.21 µM and 4.99 µM and 3.69 µM with HT29 colon; > 10 µM and 8.72 µM and 18.1 µM in the experiment with OVCAR-5 ovarian.
Consider `O=S(=O)(CCOCc1ccc(-c2ccc3ncnc(Nc4ccc(OCc5cccc(F)c5)c(Cl)c4)c3c2)o1)c1ccccc1`, for which the GI50 in the experiment on TK-10 renal is 1.17 µM; with M14 melanoma, more than 25 µM; with HCT-116 colon, more than 25 µM; in the experiment on LOX IMVI melanoma it was more than 25 µM; in the experiment with SF-295 CNS, more than 25 µM; in the experiment with SR leukemia, more than 25 µM. Moreover, the GI50 in the experiment on SNB-19 CNS, in the experiment on OVCAR-8 ovarian, in the experiment with HT29 colon and with OVCAR-5 ovarian was more than 25 µM throughout. The TGI with TK-10 renal, in the experiment on M14 melanoma, with HCT-116 colon, in the experiment on LOX IMVI melanoma, in the experiment on SF-295 CNS and in the experiment on SR leukemia was more than 25 µM throughout. Moreover, the TGI in the experiment on SNB-19 CNS, in the experiment on OVCAR-8 ovarian, in the experiment with HT29 colon and in the experiment with OVCAR-5 ovarian was more than 25 µM throughout.
In the case of `Cc1ccc(S(=O)(=O)N/N=C(\c2nc3ccc([N+](=O)[O-])cc3[nH]c2=O)C(O)c2ccccc2Cl)cc1` (configuration not stated), the TGI with TK-10 renal, in the experiment with M14 melanoma, in the experiment on HCT-116 colon, in the experiment with LOX IMVI melanoma, with SF-295 CNS and with SR leukemia was more than 100 µM throughout. Also, the TGI in the experiment on SNB-19 CNS, in the experiment on OVCAR-8 ovarian, with HT29 colon and in the experiment with OVCAR-5 ovarian was more than 100 µM throughout.
With `CC1(C)CC[C@H](C2=CC(=O)c3c(O)ccc(O)c3C2=O)O1`, the GI50 with TK-10 renal is 1.5 µM and 1.72 µM and 0.604 µM; in the experiment on M14 melanoma, 0.797 µM and 0.274 µM and 0.201 µM; with HCT-116 colon it was 1.08 µM and 0.344 µM and 0.205 µM; with LOX IMVI melanoma, 1.78 µM and 0.303 µM and 0.658 µM; in the experiment with SF-295 CNS, 8.48 µM and 2.4 µM and 3.24 µM; in the experiment on SR leukemia, 0.0764 µM. Further, the GI50 is 2.27 µM and 0.675 µM and 0.581 µM with OVCAR-8 ovarian; 3.17 µM and 1.72 µM and 0.773 µM in the experiment with HT29 colon; 4.43 µM and 2 µM and 1.91 µM in the experiment with OVCAR-5 ovarian. Also, the TGI is 3.98 µM and 3.1 µM and 1.66 µM in the experiment with TK-10 renal; 1.78 µM and 0.859 µM and 0.438 µM in the experiment with M14 melanoma; 2.57 µM and 1.3 µM and 0.579 µM in the experiment with HCT-116 colon; 4.66 µM and 1.13 µM and 1.97 µM with LOX IMVI melanoma; 22.1 µM and 6.73 µM and 8.11 µM in the experiment with SF-295 CNS; 1.46 µM in the experiment on SR leukemia. Moreover, the TGI is 20.4 µM and 3.44 µM and 2.12 µM with OVCAR-8 ovarian; 7.29 µM and 3.63 µM and 1.83 µM in the experiment on HT29 colon; 8.24 µM and 3.56 µM and 3.57 µM in the experiment on OVCAR-5 ovarian.

The values above are taken from PubChem BioAssay (NCI).
